The values that follow come from patent publication US20050101575A1, “Vitamin d3 derivatives and remedies using the same” (priority 2003, published 2005).

Each structure is given as a SMILES string. Bounds are passed on as bounds.

The subject of this experiment is HL-60 cell. Put plainly: Vitamin D3 antagonist effect: suppression of HL-60 cell differentiation induced by 1α,25-dihydroxyvitamin D3 (NBT reduction activity). The following applies: Homo sapiens, HL-60, 96 h, simultaneous treatment with 1α,25-dihydroxyvitamin D3 (1×10^−8 M); compound 1×10^−9 to 1×10^−6 M; 4 days at 37° C.; read-out: IC50 (nM), suppression of NBT reduction activity induction in HL-60 cell. The class given is cell-based. The text has this:
(1) HL-60 cell line which had been purchased from a cell bank (Japanese Cancer Research Resource Bank, Cell No: JCRB0085) was used. The cell line was stored as a frozen storage stock to prevent the change of cell characteristics attributable to successive cultivations. Prior to the initiation of experiments, the cells were defrosted and successive culturing was stared. For the experiments, cells whose successive culturing was from one month to about a half year were used. The successive culturing was carried out by centrifugally collecting cells which were in the state of suspension culture, and diluting the collected cell concentrate with a fresh culture medium at a ratio of about 1/100 (1-2×10^4 cells/ml). As the culture medium, an RPMI-1640 medium containing 10% fetal bovine serum was used.
The cells which were under successive culturing in the above process (1) were centrifugally collected, and they were dispersed in a culture medium at the cell concentration of 2×10^4 cells/ml. The dispersion was seeded into a 24-well culture schale at 1 ml/well. […] As the control, ethanol was added at 1 μl/well. After culturing at 37° C. for 4 days in the presence of 5% CO2, the cells were centrifugally collected.
(3) As the parameter of differentiation inducing effect on HL-60 cells, the induction of nitroblue tetrazonium (henceforth, NBT) reduction activity was used. The NBT reduction activity was determined according to the following procedure. That is, centrifugally collected cells were suspended in a fresh culture medium, and subsequently NBT and 12-O-tetradecanoylphorbol-13-acetate were added in such a manner that their concentrations became 0.1% and 100 ng/ml, respectively. After the mixed suspension was incubated at 37° C. for 25 min, a cytospin specimen was prepared. After air drying, it was stained with Kernechtrot, and the ratio of the positive cells of NBT reduction activity was determined under an optical microscope. Percentage ratios of the positive cell ratio in a simultaneous treatment with 1 α,25-dihydroxyvitamin D3 (1×10^−8 M) and a compound of the present invention at various treating concentrations (1×10^−9 to 1×10^−6 M) to that in a single treatment with 1 α,25-dihydroxyvitamin D3 (1×10^−8 M) were plotted against treating concentrations of the compound of the present invention, and the treating concentration of the compound of the present invention at which the percentage ratio became 50% was determined as IC50 value (nM).
Take `C=C1CC([C@@H](C)[C@H]2CC[C@H]3/C(=C/C=C4/C[C@@H](O)C[C@H](O)C4=C)CCC[C@]23C)OC1=O` (stereo partly drawn) [Compound No. 11a, 20(R)-(tetrahydro-3-vinylidene-2-furanon-5-yl)-9,10-secopregna-5(Z), 7(E), 10(19)-triene-1(S),3(R)-diol]: the IC50 (commonly the point on the concentration scale where inhibition reaches its midpoint) was 50 to 150 nM. For `C=C1C[C@H](C[C@@H](C)[C@H]2CC[C@H]3/C(=C/C=C4/C[C@H](O)[C@H](C)[C@H](O)C4=C)CCC[C@]23C)OC1=O` [Compound No. 22b, 2(S)-methyl-20(R)-(tetrahydro-3-vinylidene-2-furanon-5-(S)-yl)methyl-9,10-s ecopregna-5(Z),7(E), 10(19)-triene-1(S),3(S)-diol], the IC50 is less than 50 nM. With `C=C1C[C@H](C[C@@H](C)[C@H]2CC[C@H]3/C(=C/C=C4/C[C@@H](O)[C@H](C)[C@H](O)C4=C)CCC[C@]23C)OC1=O` [Compound No. 22d, 2(S)-methyl-20(R)-(tetrahydro-3-vinylidene-2-furanon-5-(S)-yl)methyl-9,10-s ecopregna-5(Z),7(E),10(19)-triene-1(S),3(R)-diol], the IC50 was less than 50 nM. With `C=C1CC(/C=C/[C@@H](C)[C@H]2CC[C@H]3/C(=C/C=C4/C[C@@H](O)C[C@H](O)C4=C)CCC[C@]23C)OC1=O` (some centres unmarked) [Compound No. 31b], the concentration for half-maximal inhibition (IC50) is less than 50 nM.

Take `C=C1CC(/C=C/[C@@H](C)[C@H]2CC[C@H]3/C(=C/C=C4/C[C@@H](O)[C@H](C)[C@H](O)C4=C)CCC[C@]23C)OC1=O` (stereo partly drawn) [Compound No. 32a, 2(S)-methyl-20(R)-(2-(tetrahydro-3-vinylidene-2-furanon-5-yl)-1(E)-ethenyl)-9,10-secopregna-5(Z), 7(E), 10(19)-triene-1(S), 3(R)-diol]: the IC50 is less than 50 nM.
